This is an account of results in US8426447B2, “Spiro-tricyclic ring compounds as beta-secretase modulators and methods of use” (Amgen Inc., priority 2008, dated 2013).

Experiment [1] deals with T1, BACE1 (Homo sapiens, UniProt P56817). Nature of the experiment: In Vitro BACE Cell-based Assay (HEK cell assay): Aβ40 in conditioned medium of cells stably expressing Amyloid Precursor Protein, sandwich ELISA. As to conditions: read-out: HEK cell assay. Put shortly:
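Read-out is time-resolved fluorescence of Aβ40 in supernatant, captured by pAb40 and detected with biotinylated 6E10 plus Streptavidin-Europium. Cells stably expressing APP received compounds for 24 h over 10 concentrations starting at 100 μM or 10 μM, final DMSO 0.1%.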

Experiment [2] addresses T1, BACE1. As to the kind of experiment: In Vitro Enzymatic BACE FRET (Fluorescence Resonance Energy Transfer) Assay. As to conditions: read-out: BACE1 FRET assay. The format is biochemical. The gist of the method: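 Acetate buffer at pH 4.2 with 10% DMSO and 100 uM genapol hosts the enzymatic reaction, initiated by 50 nM FRET substrate and allowed to proceed one hour. Tris quench to neutral pH precedes the fluorescence measurement.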

The mark [3] stands for this setting: HEK cell-based assay, Aβ40 in conditioned medium, IC50 class symbols.
Where [4] appears, read: in vitro BACE FRET enzyme assay, IC50 class symbols.

T1 sequence (P56817 46-501, species assumed): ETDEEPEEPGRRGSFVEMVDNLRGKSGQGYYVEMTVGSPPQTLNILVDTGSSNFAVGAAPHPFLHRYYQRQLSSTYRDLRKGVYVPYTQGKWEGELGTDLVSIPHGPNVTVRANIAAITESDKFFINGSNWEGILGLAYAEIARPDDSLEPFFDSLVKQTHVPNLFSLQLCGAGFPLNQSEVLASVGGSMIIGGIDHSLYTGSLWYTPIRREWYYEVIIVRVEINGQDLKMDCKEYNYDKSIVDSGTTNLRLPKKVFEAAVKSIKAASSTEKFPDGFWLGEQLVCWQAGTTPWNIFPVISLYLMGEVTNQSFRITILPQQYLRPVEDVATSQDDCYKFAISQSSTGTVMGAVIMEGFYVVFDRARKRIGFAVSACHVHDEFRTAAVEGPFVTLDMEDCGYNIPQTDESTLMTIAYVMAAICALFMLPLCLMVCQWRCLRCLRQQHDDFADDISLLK

As to `CC(C)(C#N)COc1cc2c(cc1F)Oc1ccc(-c3cccnc3)cc1[C@@]21COC(N)=N1` [compound 547], the IC50 is less than 0.1 µM at BACE1 [1] (Table IV, class symbols) and less than 0.1 µM at BACE1 [2] (Table IV, class symbols).
As to `COC(C)(C)CCc1ccc2c(c1)C1(COC(N)=N1)c1cc(-c3cccnc3)cnc1O2` (racemic) [Example 110, rac-7-(3-methoxy-3-methylbutyl)-3-(3-pyridinyl)spiro[chromeno[2,3-b]pyridine-5,4′-[1,3]oxazol]-2′-amine], the IC50 is 0.1 to 1 µM on BACE1 [1] (Table III, IC50's in uM ranges) and less than 0.1 µM at BACE1 [2] (Table III, IC50's in uM ranges).
For `COc1ccc2c(c1)[C@]1(COC(N)=N1)c1cc(NC(=O)c3ccc(Cl)cn3)ccc1O2` [compound 652, N-((4S)-2-amino-7′-methoxyspiro[1,3-oxazole-4,9′-xanthen]-2′-yl)-5-chloro-2-pyridinecarboxamide], the IC50 on BACE1 [1] (Table IV, class symbols) is 0.1 to 1 µM; on BACE1 [2] (Table IV, class symbols), less than 0.1 µM.
For `CC(C)(C)OC(=O)CCc1ccc2c(c1)[C@]1(COC(N)=N1)c1cc(-c3cncnc3)ccc1O2` [compound 826], in that order: 1 to 5 µM and 0.1 to 1 µM.
As for `CC(C)(C)COc1ccc2c(c1)[C@]1(COC(N)=N1)c1cc(-c3csc(C(F)F)c3)ccc1O2` [compound 737], the IC50 at BACE1 [1] was 0.1 to 1 µM; on BACE1 [2], less than 0.1 µM.
In the same order, the values of `Cc1noc(C)c1-c1ccc2c(c1)[C@]1(COC(N)=N1)c1cc(-c3cccnc3)ccc1O2` [compound 704] are 0.1 to 1 µM and 0.1 to 1 µM.
In the case of `COc1ncc(-c2ccc3c(c2)[C@@]2(COC(N)=N2)c2cc(OCC(C)(C)C)ccc2O3)cn1` [compound 977], the IC50 on BACE1 [1] lay in the range of 1 to 5 µM; on BACE1 [2], 0.1 to 1 µM.
`CC(C)(F)COc1cc2c(cc1F)Oc1ccc(-c3cccnc3)cc1[C@@]21COC(N)=N1` [compound 353, (4S)-3′-fluoro-2′-(2-fluoro-2-methylpropoxy)-7′-(3-pyridinyl)spiro[1,3-oxazole-4,9′-xanthen]-2-amine]: the IC50 at BACE1 [1] (setting [3]) and at BACE1 [2] (setting [4]) was less than 0.1 µM each time.
Turning to `COc1ccc2c(c1)C1(COC(N)=N1)c1cc(Br)ccc1O2` (centres unmarked) [Example 35, 2′-bromo-7′-methoxyspiro[1,3-oxazole-4,9′-xanthen]-2-amine], the IC50 at BACE1 [1] (Table 1, Aβ40, 24 h incubation) was more than 5 µM; on BACE1 [2] (Table 1), more than 5 µM.
On to `COc1ccc2c(c1)[C@]1(N=C(N)O[C@H]1C)c1cc(-c3cncnc3)ccc1O2` (single isomer, unassigned) [Example 125a], for which the IC50 on BACE1 [1] (Table III, IC50's in uM ranges) was more than 5 µM; at BACE1 [2] (Table III, IC50's in uM ranges), more than 5 µM.
On to `NC1=N[C@@]2(CO1)c1cc(-c3cccnc3)ccc1Oc1cnc(Cl)cc12` [compound 676], for which the IC50 at BACE1 [1] lay in the range of 1 to 5 µM; at BACE1 [2], 0.1 to 1 µM.
On to `NC1=N[C@@]2(CO1)c1cc(-c3ccccc3F)ccc1Oc1ncc(N3CCOCC3)cc12` [compound 460], for which the IC50 was 0.1 to 1 µM on BACE1 [1] (HEK cells) and less than 0.1 µM on BACE1 [2].
For `CC(C)(C)C#Cc1ccc2c(c1)[C@@]1(COC(N)=N1)c1cc(C#CC(C)(C)C)cnc1O2` [compound 1000], the IC50 is 0.1 to 1 µM on BACE1 [1] and less than 0.1 µM at BACE1 [2].
As for `CC(C)(C)C#Cc1cnc2c(c1)[C@]1(COC(N)=N1)c1cc(-c3ccnnc3)ccc1O2` [compound 653], the IC50 is 0.1 to 1 µM on BACE1 [1] (Table IV, class symbols) and less than 0.1 µM at BACE1 [2] (Table IV, class symbols).
Regarding `COCC(=O)Nc1ccc2c(c1)[C@@]1(COC(N)=N1)c1cc(-c3ccccc3)ccc1O2` [compound 533], the IC50 was less than 0.1 µM at BACE1 [1] (Table IV, class symbols) and less than 0.1 µM on BACE1 [2] (Table IV, class symbols).
As to `NC1=N[C@@]2(CO1)c1cc(-c3cccnc3)ccc1Oc1ccc(Cl)nc12` [compound 988], the IC50 at BACE1 [1] and on BACE1 [2] was 1 to 5 µM throughout.
Turning to `COc1ccc2c(c1)[C@]1(COC(N)=N1)c1cc(-c3cncc4ccccc34)ccc1O2` [compound 634], the IC50 at BACE1 [1] (Table IV, class symbols) lay in the range of 1 to 5 µM; on BACE1 [2] (Table IV, class symbols), 0.1 to 1 µM.
`COc1ccc(-c2ccc3c(c2)[C@]2(COC(N)=N2)c2cc(-c4cncnc4)ccc2O3)cc1` [compound 892]: the IC50 at BACE1 [1] (Table IV, class symbols) was less than 0.1 µM; at BACE1 [2] (Table IV, class symbols), less than 0.1 µM.
Take `COc1ccc2c(c1)[C@]1(COC(N)=N1)c1cc(NC(=O)c3cc(Cl)ccn3)ccc1O2` [compound 534]: the IC50 was more than 5 µM on BACE1 [1] (Table IV, class symbols) and 1 to 5 µM at BACE1 [2] (Table IV, class symbols).
For `Cc1ccncc1-c1ccc2c(c1)[C@@]1(COC(N)=N1)c1cc(OCC(C)(C)C)ccc1O2` [Example 86, (4S)-2′-(2,2-dimethylpropoxy)-7′-(4-methyl-3-pyridinyl)spiro[1,3-oxazole-4,9′-xanthen]-2-amine], the IC50 was 0.1 to 1 µM at BACE1 [1] (Table II, Aβ40, 24 h incubation) and less than 0.1 µM at BACE1 [2] (Table II).
`CC(C)(C)COc1ccc2c(c1)[C@@]1(COC(N)=N1)c1cc(-c3cncs3)ccc1O2` [compound 781]: the IC50 at BACE1 [1] was 0.1 to 1 µM; on BACE1 [2], less than 0.1 µM.
Consider `NC1=N[C@]2(CO1)c1cc(-c3cccnc3)ccc1Oc1ccc(-c3cncnc3)cc12` [Example 124, (R)-2′-(pyridin-3-yl)-7′-(pyrimidin-5-yl)-5H-spiro[oxazole-4,9′-xanthen]-2-amine], for which the IC50 was less than 0.1 µM on BACE1 [1] (Table III, IC50's in uM ranges) and less than 0.1 µM on BACE1 [2] (Table III, IC50's in uM ranges).
Regarding `CC1(C#Cc2cnc3c(c2)[C@]2(COC(N)=N2)c2cc(-c4ccccc4F)ccc2O3)COC1` [compound 520], the IC50 on BACE1 [1] (HEK cells) and on BACE1 [2] was less than 0.1 µM in each case.
As for `CC1(COc2cc3c(cc2F)Oc2ccc(-c4cncnc4)cc2[C@]32COC(N)=N2)COC1` [compound 713], the IC50 at BACE1 [1] and on BACE1 [2] was 0.1 to 1 µM each time.
For `CC1(COc2ccc3c(c2)[C@@]2(COC(N)=N2)c2cc(-c4cccc(F)c4)cnc2O3)COC1` [compound 774], the IC50 on BACE1 [1] and at BACE1 [2] was less than 0.1 µM throughout.
Turning to `Cc1ccc2c(c1)Oc1ccc(-c3cccc(Cl)c3F)cc1C21COC(N)=N1` (centres unmarked) [Example 26, 2′-(3-chloro-2-fluorophenyl)-6′-methylspiro[1,3-oxazole-4,9′-xanthen]-2-amine], the IC50 on BACE1 [1] (Table 1, Aβ40, 24 h incubation) was 1 to 5 µM; on BACE1 [2] (Table 1), more than 5 µM.
With `CC(C)(C)COc1ccc2c(c1)[C@]1(COC(N)=N1)c1cc(C3=CCCCC3)ccc1O2` [compound 803], the IC50 at BACE1 [1] (Table IV, class symbols) was 1 to 5 µM; at BACE1 [2] (Table IV, class symbols), less than 0.1 µM.
`CC(C)(O)COc1ccc2c(c1)[C@]1(COC(N)=N1)c1cc(-c3cncc(F)c3)ccc1O2` [compound 224]: the IC50 was less than 0.1 µM at BACE1 [1] (Table III, IC50's in uM ranges) and less than 0.1 µM at BACE1 [2] (Table III, IC50's in uM ranges).
On to `CC(C)(C)COc1ccc2c(c1C#N)[C@]1(COC(N)=N1)c1cc(-c3cccnc3)ccc1O2` [compound 943], for which the figures for the IC50 on BACE1 [1] and on BACE1 [2] were 0.1 to 1 µM and less than 0.1 µM, respectively.
As to `NC1=N[C@@]2(CO1)c1cc(-c3cccnc3F)ccc1Oc1ncccc12` [compound 570], the IC50 on BACE1 [1] (Table IV, class symbols) was 0.1 to 1 µM; at BACE1 [2] (Table IV, class symbols), less than 0.1 µM.
In the same order, the values of `COC(=O)c1ccc2c(c1)[C@@]1(COC(N)=N1)c1cc(OCC(C)(C)C)ccc1O2` [compound 850] are 1 to 5 µM and 0.1 to 1 µM.
On to `CC(C)(C)OC(=O)Cc1ccc2c(c1)[C@]1(COC(N)=N1)c1cc(Br)ccc1O2` [compound 707], for which the IC50 at BACE1 [1] and at BACE1 [2] was more than 5 µM throughout.
Regarding `NC1=N[C@@]2(CO1)c1cc(-c3cccnc3)ccc1Oc1ccc(C3CC3)cc12` [compound 758], the IC50 was 0.1 to 1 µM on BACE1 [1] and less than 0.1 µM on BACE1 [2].
For the compound `COc1ccc(F)c(-c2ccc3c(c2)C2(COC(N)=N2)c2ccc(C)cc2O3)c1` (centres unmarked) [Example 19, 2′-(2-fluoro-5-methoxyphenyl)-6′-methylspiro[1,3-oxazole-4,9′-xanthen]-2-amine], the IC50 lay in the range of 0.1 to 1 µM on BACE1 [1] (Table 1, Aβ40, 24 h incubation) and 1 to 5 µM on BACE1 [2] (Table 1).
Take `CC1(COc2cnc3c(c2)[C@]2(COC(N)=N2)c2cc(-c4cccc(F)c4F)ccc2O3)COC1` [compound 413]: the IC50 at BACE1 [1] (setting [3]) and on BACE1 [2] (setting [4]) was less than 0.1 µM throughout.
Regarding `NC1=N[C@@]2(CO1)c1cc(-c3cccnc3)ccc1Oc1cnc(C3CCOCC3)cc12` [compound 801], the IC50 at BACE1 [1] (Table IV, class symbols) was less than 0.1 µM; on BACE1 [2] (Table IV, class symbols) it was less than 0.1 µM.
On to `CC(C)(C)CC(O)c1ccc2c(c1)[C@@]1(COC(N)=N1)c1cc(-c3ccc(F)nc3)ccc1O2` (some centres unmarked) [162b], for which the IC50 is 0.1 to 1 µM at BACE1 [1] (Table III, IC50's in uM ranges) and 0.1 to 1 µM on BACE1 [2] (Table III, IC50's in uM ranges).
With `Cn1cc(-c2cc(F)c3c(c2)[C@]2(COC(N)=N2)c2cc(-c4cccnc4)ccc2O3)cn1` [compound 509, (4S)-4′-fluoro-2′-(1-methyl-1H-pyrazol-4-yl)-7′-(3-pyridinyl)spiro[1,3-oxazole-4,9′-xanthen]-2-amine], the IC50 on BACE1 [1] (HEK cells) and on BACE1 [2] was less than 0.1 µM in each case.
Turning to `NC1=N[C@@]2(CO1)c1cc(-c3cccnc3)ccc1Oc1ncc(N3CCOCC3)cc12` [compound 539], the IC50 on BACE1 [1] (Table IV, class symbols) was less than 0.1 µM; at BACE1 [2] (Table IV, class symbols), less than 0.1 µM.
Take `NC1=N[C@]2(CO1)c1cc(C3=CCOCC3)ccc1Oc1cc(F)c(-c3cccnc3)cc12` [compound 492]: the IC50 at BACE1 [1] (HEK cells) and at BACE1 [2] was less than 0.1 µM in each case.
With `CC1(C)CN(c2cnc3c(c2)[C@]2(COC(N)=N2)c2cc(-c4cccnc4F)ccc2O3)CCO1` [compound 463], the IC50 at BACE1 [1] (HEK cells) and at BACE1 [2] was less than 0.1 µM each time.
Turning to `CC(C)Cc1cc2c3c(ccc2o1)Oc1ncc(-c2cncnc2)cc1[C@]31COC(N)=N1` [compound 792], the IC50 at BACE1 [1] (Table IV, class symbols) lay in the range of 1 to 5 µM; at BACE1 [2] (Table IV, class symbols), 0.1 to 1 µM.
Regarding `CC(C)(C)OC(=O)Cc1ccc2c(c1)[C@@]1(COC(N)=N1)c1cc(Br)ccc1O2` [compound 858], the IC50 at BACE1 [1] (Table IV, class symbols) was more than 5 µM; at BACE1 [2] (Table IV, class symbols) it was more than 5 µM.
